Read-outs that look alike come from different tables or passages of the source.
Key:
Assay type in all cases: cell-based
[1] = tested on: mouse macrophages (RAW264.7); experiment: Lipopolysaccharide-induced NO secretion in macrophages (Griess); details: RAW264.7, LPS 1 μg/ml, a/b isomers given as first/second symbol, read-out: IC50 (μM), inhibition of lipopolysaccharide-induced NO secretion in macrophages
Method: The effects of the compounds of the present application on the lipopolysaccharide-induced NO secretion in macrophage was tested Principle: Anti-inflammatory drug activity screening is to detect the inhibitory effect of compounds on NO production in the mouse macrophages (RAW264.7). When immune cells are stimulated by microbial endotoxin, inflammatory mediators, etc., a large amount of induced NO synthase (iNOS) is produced, and thus NO is generated for immune response. Accordingly, the inhibition of NO production can serve as a direct indicator of the anti-inflammatory activity of the compound. The activity of the compound to inhibit NO production at the cellular level is directly evaluated in the abovementioned test model, thereby reflecting the anti-inflammatory activity of the compound. In this experiment, the content of NO in the medium was detected by Gris kit (Molecular probes, G-7921). Macrophages (Raw264.7) were cultured in DMEM medium containing 10% fetal bovine serum, with the cell concentration adjusted. The cells were seeded in 24-well cell culture plates, cultured in an incubator, and the test samples in different concentrations were added every other day. The blank medium was used as a blank control, and commercially available indomethacin and resveratrol were employed as positive controls. After the addition of lipopolysaccharide (LPS, 1 μg/ml), incubation was performed for 24 hours. Then the supernatant culture solution was taken, to […] reagent was added, and the absorbance value was measured by a microplate reader at 548 nm. Inhibition rate=([…])×100%.

[2] = tested on: human embryonic lung fibroblast IMR-90; experiment: Anti-fibrosis activity test: inhibition of proliferation of human embryonic lung fibroblast IMR-90 (CCK-8)
Method: (§1) BHK-21 cells in exponential growth phase were selected. After the fusion growth reached 85-95%, normal passage method was utilized to digest and collect the cells, followed by cell counting and adjusting the cell density to 2×10^4 cells/mL. The cells were seeded into 96-well plates, 100 μL/well, and were incubated under the condition of 5% CO2 at 37° C.
(§2) The supernatant was removed after the cells had adhered to the wall for 24 hours. The culture solution containing the prepared compounds at different concentrations were added to the wells, 100 μL/well, each concentration in triplicate. The cells were subcultured for 48 hours after administration. Commercially available pirfenidone was employed as the positive control.
(§3) 10 μL of CCK-8 solution ( 1/10 of the volume of the culture solution) was added to each well 48 hours after the administration, and incubated for 2 hours. The absorbance (A) of each well was determined by a microplate reader at 450 nm wavelength. The inhibition rate against cell proliferation for each compound was calculated based on A, wherein inhibition rate against cell proliferation (inhibition ratio, IR)=(1−value of experimental group (Ai)/value of blank control group (Ao))×100% and the IC50 value of each compound was calculated by the data processing software.
(§4) Using the same protocol for the cell experiments, the inhibitory activity of the test compounds against the proliferation of human lung fibroblasts HFL1, human hepatic stellate cells LX-2, human fibrosarcoma cells HT-1080, human dermal fibroblasts CCC-ESF-1, human embryonic lung fibroblast IMR-90, cardiac fibroblast RAT-iCell-C002 was assayed.

[3] = tested on: BHK-21 cells; experiment: Anti-fibrosis activity test: inhibition of BHK-21 cell proliferation (CCK-8); details: Mesocricetus auratus, BHK-21, 48 h
Method: as §1, §2, §3

[4] = tested on: cardiac fibroblast RAT-iCell-C002; experiment: Anti-fibrosis activity test: inhibition of proliferation of cardiac fibroblast RAT-iCell-C002 (CCK-8)
Method: as §1, §2, §3, §4

[5] = tested on: human fibrosarcoma cells HT-1080; experiment: Anti-fibrosis activity test: inhibition of proliferation of human fibrosarcoma cells HT-1080 (CCK-8); details: Homo sapiens, HT-1080, 48 h
Method: as §1, §2, §3, §4

[6] = tested on: human hepatic stellate cells LX-2; experiment: Anti-fibrosis activity test: inhibition of proliferation of human hepatic stellate cells LX-2 (CCK-8); details: Homo sapiens, 48 h
Method: as §1, §2, §3, §4

[7] = tested on: human dermal fibroblasts CCC-ESF-1; experiment: Anti-fibrosis activity test: inhibition of proliferation of human dermal fibroblasts CCC-ESF-1 (CCK-8); details: Fibroblast
Method: as §1, §2, §3, §4

[8] = tested on: human lung fibroblasts HFL1; experiment: Anti-fibrosis activity test: inhibition of proliferation of human lung fibroblasts HFL1 (CCK-8); details: Homo sapiens, HFL1, 48 h
Method: as §1, §2, §3, §4

[9] = human embryonic lung fibroblast IMR-90, CCK-8, 48 hours
[10] = CCK-8, 48 hours after administration
[11] = Cardiac fibroblast, 48 h, cardiac fibroblast RAT-iCell-C002, CCK-8, 48 hours
[12] = human fibrosarcoma cells HT-1080, CCK-8, 48 hours
[13] = human hepatic stellate cells LX-2, CCK-8, 48 hours
[14] = human dermal fibroblasts CCC-ESF-1, CCK-8, 48 hours
[15] = human lung fibroblasts HFL1, CCK-8, 48 hours
[16] = cardiac fibroblast RAT-iCell-C002, CCK-8, 48 hours
[17] = Homo sapiens, IMR-90 cells, 48 h, CCK-8
[18] = Cardiac fibroblast, 48 h, RAT-iCell-C002 cells, CCK-8
[19] = Homo sapiens, CCC-ESF-1 cells, 48 h, CCK-8

| SMILES | IC50 ([1]; Mus musculus, RAW264.7, 24 h) [µM] | IC50 [2, 9] [mM] | IC50 [3, 10] [mM] | IC50 [4, 11] [mM] | IC50 [5, 12] [mM] | IC50 [6, 13] [mM] | IC50 [7, 14] [mM] | IC50 [8, 15] [mM] | IC50 ([1]; 24 hours) [µM] | IC50 [4, 16] [mM] | IC50 [2, 17] [mM] | IC50 ([3]; 48 h, CCK-8) [mM] | IC50 [4, 18] [mM] | IC50 ([5]; HT-1080 cells, 48 h, CCK-8) [mM] | IC50 ([6]; LX-2, 48 h, LX-2 cells, CCK-8) [mM] | IC50 [7, 19] [mM] | IC50 ([8]; HFL1 cells, 48 h, CCK-8) [mM] |
| --- | --- | --- | --- | --- | --- | --- | --- | --- | --- | --- | --- | --- | --- | --- | --- | --- | --- |
| CCn1c2c(c(=O)c3cc(F)ccc31)C(=O)n1cccc1-2 [Compound 104a, 4-Ethyl-7-fluoro-9H-pyrrolizino[1,2-b]quinoline-9,10(4H)-dione] | 1 to 10 | 0.05 to 5 | < 0.05 | 0.05 to 5 | 0.05 to 5 | 0.05 to 5 | 0.05 to 5 | 0.05 to 5 | – | – | – | – | – | – | – | – | – |
| CCOc1c2c(nc3ccc(F)cc13)-c1cccn1C2=O [Compound 104b, 9-ethoxy-7-fluoro-10H-pyrrolizino[1,2-b]quinolin-10-one] | 1 to 10 | 0.05 to 5 | 0.05 to 5 | 0.05 to 5 | 0.05 to 5 | 0.05 to 5 | 0.05 to 5 | 0.05 to 5 | – | – | – | – | – | – | – | – | – |
| CC(C)n1c2c(c(=O)c3cc(F)ccc31)C(=O)n1cccc1-2 [Compound 108a, 7-Fluoro-4-isopropyl-9H-pyrrolizino[1,2-b]quinoline-9,10(4H)-dione] | 1 to 10 | 0.05 to 5 | 0.05 to 5 | 0.05 to 5 | 5 to 20 | 0.05 to 5 | 0.05 to 5 | 0.05 to 5 | – | – | – | – | – | – | – | – | – |
| CC(C)Oc1c2c(nc3ccc(F)cc13)-c1cccn1C2=O [Compound 108b, 7-fluoro-9-isopropoxy-10H-pyrrolizino[1,2-b]quinolin-10-one] | 1 to 10 | 0.05 to 5 | 0.05 to 5 | 0.05 to 5 | 5 to 20 | 0.05 to 5 | 0.05 to 5 | 0.05 to 5 | – | – | – | – | – | – | – | – | – |
| C=CCn1c2c(c(=O)c3cc(F)ccc31)C(=O)n1cccc1-2 [Compound 109a, 4-Allyl-7-fluoro-9H-pyrrolizino[1,2-b]quinoline-9,10(4H)-dione] | 0.1 to 1 | < 0.05 | 0.05 to 5 | 0.05 to 5 | 0.05 to 5 | 0.05 to 5 | 0.05 to 5 | 0.05 to 5 | – | – | – | – | – | – | – | – | – |
| C=CCOc1c2c(nc3ccc(F)cc13)-c1cccn1C2=O [Compound 109b, 9-(allyloxy)-7-fluoro-10H-pyrrolizino[1,2-b]quinolin-10-one] | 0.1 to 1 | 0.05 to 5 | 0.05 to 5 | 0.05 to 5 | 0.05 to 5 | 0.05 to 5 | 0.05 to 5 | 0.05 to 5 | – | – | – | – | – | – | – | – | – |
| O=C1c2c(n(CCO)c3ccc(F)cc3c2=O)-c2cccn21 [Compound 114a, 7-Fluoro-4-(2-hydroxyethyl)-9H-pyrrolizino[1,2-b]quinoline-9,10(4H)-dione] | 1 to 10 | 0.05 to 5 | < 0.05 | 0.05 to 5 | 0.05 to 5 | 0.05 to 5 | 0.05 to 5 | 0.05 to 5 | – | – | – | – | – | – | – | – | – |
| O=C1c2c(n(Cc3ccc(Cl)cc3)c3c(C(F)(F)F)c(N4CCNCC4)ccc3c2=O)-c2cccn21 [Compound 487a, 4-(4-Chlorobenzyl)-6-(piperazin-1-yl)-5-(trifluoromethyl)-9H-pyrrolizino[1,2-b]quinoline-9,10(4H)-dione] | – | – | – | – | – | – | – | – | 0.1 to 1 | < 0.05 | – | – | – | – | – | – | – |
| O=C1c2c(nc3c(C(F)(F)F)c(N4CCNCC4)ccc3c2OCc2ccc(Cl)cc2)-c2cccn21 [Compound 487b, 9-((4-chlorobenzyl)oxy)-6-(piperazin-1-yl)-5-(trifluoromethyl)-10H-pyrrolizino[1,2-b]quinolin-10-one] | – | – | – | – | – | – | – | – | 10 to 50 | 0.05 to 5 | – | – | – | – | – | – | – |
| O=C1c2c(nc3cccc(Cl)c3c2OCc2ccccc2Cl)-c2cccn21 [Compound 645b, 8-chloro-9-((2-chlorobenzyl)oxy)-10H-pyrrolizino[1,2-b]quinolin-10-one] | – | 0.05 to 5 | 0.05 to 5 | 0.05 to 5 | 0.05 to 5 | 0.05 to 5 | 0.05 to 5 | 0.05 to 5 | – | – | – | – | – | – | – | – | – |
| O=C1c2c(n(Cc3ccc(F)cc3)c3cc(N4CCNCC4)cc(F)c3c2=O)-c2cccn21 [Compound 646a, 8-Fluoro-4-(4-fluorobenzyl)-6-(piperazin-1-yl)-9H-pyrrolizino[1,2-b]quinoline-9,10(4H)-dione] | – | 0.05 to 5 | 0.05 to 5 | 0.05 to 5 | 0.05 to 5 | 0.05 to 5 | 0.05 to 5 | 0.05 to 5 | – | – | – | – | – | – | – | – | – |
| O=C1c2c(nc3cc(N4CCNCC4)cc(F)c3c2OCc2ccc(F)cc2)-c2cccn21 [Compound 646b, 8-fluoro-9-((4-fluorobenzyl)oxy)-6-(piperazin-1-yl)-10H-pyrrolizino[1,2-b]quinolin-10-one] | – | 0.05 to 5 | 0.05 to 5 | 0.05 to 5 | 0.05 to 5 | 0.05 to 5 | 0.05 to 5 | 0.05 to 5 | – | – | – | – | – | – | – | – | – |
| O=C1c2c(n(Cc3ccc(Cl)cc3)c3cc(N4CCNCC4)cc(F)c3c2=O)-c2cccn21 [Compound 647a, 4-(4-Chlorobenzyl)-8-fluoro-6-(piperazin-1-yl)-9H-pyrrolizino[1,2-b]quinoline-9,10(4H)-dione] | – | 0.05 to 5 | 0.05 to 5 | 0.05 to 5 | 0.05 to 5 | 0.05 to 5 | 0.05 to 5 | 0.05 to 5 | – | – | – | – | – | – | – | – | – |
| O=C1c2c(nc3cc(N4CCNCC4)cc(F)c3c2OCc2ccc(Cl)cc2)-c2cccn21 [Compound 647b, 9-((4-chlorobenzyl)oxy)-8-fluoro-6-(piperazin-1-yl)-10H-pyrrolizino[1,2-b]quinolin-10-one] | – | 0.05 to 5 | 0.05 to 5 | 0.05 to 5 | 0.05 to 5 | 0.05 to 5 | 0.05 to 5 | 0.05 to 5 | – | – | – | – | – | – | – | – | – |
| Cc1ccc2n1C(=O)c1c-2[nH]c2ccccc2c1=O [Compound 800a, 1-Methyl-9H-pyrrolizino[1,2-b]quinoline-9,10(4H)-dione] | – | – | – | – | – | – | – | – | – | – | 0.05 to 5 | 0.05 to 5 | 0.05 to 5 | 0.05 to 5 | 0.05 to 5 | 0.05 to 5 | 0.05 to 5 |
| Cc1ccc2n1C(=O)c1c-2nc2ccccc2c1O [Compound 800b, 9-hydroxy-1-methyl-10H-pyrrolizino[1,2-b]quinolin-10-one] | – | – | – | – | – | – | – | – | – | – | 0.05 to 5 | 0.05 to 5 | 0.05 to 5 | 0.05 to 5 | 0.05 to 5 | 0.05 to 5 | 0.05 to 5 |
| Cc1cc2n(c1)C(=O)c1c-2[nH]c2ccccc2c1=O [Compound 801a, 2-Methyl-9H-pyrrolizino[1,2-b]quinoline-9,10(4H)-dione] | – | – | – | – | – | – | – | – | – | – | 0.05 to 5 | < 0.05 | 0.05 to 5 | 0.05 to 5 | 0.05 to 5 | 0.05 to 5 | 0.05 to 5 |
| COc1ccc2c(c1)c(CC(=O)O)c(C)n2C(=O)c1ccc(Cl)cc1 [indomethacin, reference compound] | 10 to 50 | – | – | – | – | – | – | – | – | – | – | – | – | – | – | – | – |
| Oc1ccc(C=Cc2cc(O)cc(O)c2)cc1 [resveratrol, reference compound] | 1 to 10 | – | – | – | – | – | – | – | – | – | – | – | – | – | – | – | – |
